From patent EP0603240B1, “SAFENING HERBICIDAL PYRAZOLYLSULFONYLUREAS” (priority 1991, dated 1993)

Key:
Format in all cases: in vivo
[1] = test system: barnyardgrass (Echinochloa crusgalli); assay: Example 11, Procedure II: Herbicide No. 1 + metazachlor (No. 14) with antidotes
[2] = test system: velvetleaf (Abutilon theophrasti); assay: as above
[3] = test system: barnyardgrass (Echinochloa crusgalli); assay: Example 10, Procedure II: Herbicide No. 1 + propachlor (No. 5) with antidotes
In short: (§1)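 Herbicide No. 1 plus propachlor and antidote, each in acetone, incorporated into silt loam cover soil over seeded corn/weed beds; untreated and herbicide-only controls included. Initial overhead irrigation equal to 0.6 cm rainfall, then greenhouse sub-irrigation. Response scored as percent injury; safening taken as injury difference without versus with antidote.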

[4] = test system: velvetleaf (Abutilon theophrasti); assay: as above
In short: as §1

corn = assay: Example 8, Procedure II: Herbicide No. 1 + butachlor (No. 9) with antidotes
In short: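 Corn sown in silt loam and covered with soil pre-mixed with acetone-applied Herbicide No. 1 plus butachlor, with or without antidote. Given 0.6 cm overhead irrigation, then sub-irrigated in greenhouse; antidote effect is percent injury without minus with antidote.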

[5] = test system: barnyardgrass (Echinochloa crusgalli); assay: Example 19, Procedure II: Herbicide No. 1 + ERADICANE EXTRA with added antidotes
Protocol: (§2) Containers were filled and compacted with a fumigated silt loam top soil to a depth of about 1.3 cm from the top of the container. A first container was designated as an untreated control, a second container was designated as a herbicide control, and a third container was designated as a herbicide + antidote test container. Each of the containers was seeded with a crop species. A measured amount of herbicide dispersed or dissolved in acetone was applied to a measured quantity of soil. To this same quantity of soil treated with herbicide, there was added a measured amount of antidote dispersed or dissolved in acetone. The quantity of soil treated with the herbicide and antidote was thoroughly mixed to incorporate the herbicide and antidote in the soil uniformly. The seed bed in the third container of soil was covered with the soil treated with the herbicide and antidote and the container was leveled. For each test series, the seed beds of the first and second containers were likewise covered by soil layers. the cover layer of the first container was not treated with herbicide or antidote.
(§3) The containers were then placed on a bench in a greenhouse and sub-irrigated as required for the duration of the test. […] Plant response is measured in terms of percent injury. Antidote efficacy is indicated as the difference in plant injury by the herbicide(s) without the antidote and with the antidote.
(§4) This procedure is the same as Procedure I, but modified in the manner that after incorporation of the chemicals (herbicide and antidote) the containers with the covered seedbed were treated with an initial overhead irrigation equivalent to 0.6 cm rainfall, then subsequently sub-irrigated as required on greenhouse benches.
(§5) In the series of greenhouse tests described below, for routine screening purposes the herbicide/antidote compositions were tested in crop/weed combinations involving corn as the crop and either or both of the weeds barnyardgrass (Echinochloa crusgalli), a monocotyledonous weed, and velvetleaf (Abutilon theophrasti), a dicotyledonous weed. In the tables below, these weeds are indicated by the symbols "BYG" and "VL", respectively.
(§6) In the test reported in this example, the herbicidal composition was similar to that used in Example 16 in that Herbicide No. 1 was combined with EPTC (Herbicide No. 4) as a co-herbicide and the antidotes included Nos. 1, 2, 7, 13 and 15. However, in this test the EPTC was introduced as a formulation of ERADICANE (EPTC + the antidote R-25788, i.e., Antidote No. 1) at an application rate of 8.96 kg/ha. Thus, in this test two antidotes were present, viz. R-25788 and one of the auxilliary antidotes, No. 2, 13 and 15.
(§7) The test reported in this example was performed in the same manner and with the same antidotes used in Example 18, the only difference being the substitution of the commercial herbicidal product ERADICANE® EXTRA for ERADICANE®. ERADICANE EXTRA is a formulation containing both an antidote, i.e., R-29148 (Antidote No. 5 herein), and an extender, dietholate.

[6] = test system: velvetleaf (Abutilon theophrasti); assay: as above
Protocol: as §2, §3, §4, §5, §6, §7

[7] = test system: barnyardgrass (Echinochloa crusgalli); assay: Example 7, Procedure II: Herbicide No. 1 + metolachlor (No. 12) with antidotes
In short: (§8)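 Herbicide and antidote in acetone were mixed into silt loam soil used to cover seeded beds, followed by 0.6 cm overhead irrigation, then sub-irrigation in the greenhouse. Percent injury was scored against herbicide-alone and untreated controls, averaged over duplicates. Herbicide No. 1 was combined with metolachlor.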

[8] = test system: velvetleaf (Abutilon theophrasti); assay: as above
In short: as §8

[9] = test system: barnyardgrass (Echinochloa crusgalli); assay: Example 18, Procedure II: Herbicide No. 1 + ERADICANE (EPTC + R-25788) with auxiliary antidotes
Protocol: as §2, §3, §4, §5, §6
(§9) Test procedures were those of Procedure II above.

[10] = test system: velvetleaf (Abutilon theophrasti); assay: as above
Protocol: as §2, §3, §4, §5, §6, §9

[11] = Herbicide No.1 0.56 kg/ha + Herbicide No.14 3.36 kg/ha, antidote rate 2.24 kg/ha
[12] = Herbicide No.1 0.56 kg/ha + Herbicide No.14 3.36 kg/ha, antidote rate 8.96 kg/ha
[13] = Herbicide No.1 1.12 kg/ha + Herbicide No.14 3.36 kg/ha, antidote rate 2.24 kg/ha
[14] = Herbicide No.1 1.12 kg/ha + Herbicide No.14 3.36 kg/ha, antidote rate 8.96 kg/ha
[15] = Herbicide No.1 0.14 kg/ha + Herbicide No.5 4.48 kg/ha, antidote rate 2.24 kg/ha
[16] = Herbicide No.1 0.14 kg/ha + Herbicide No.5 4.48 kg/ha, antidote rate 8.96 kg/ha
[17] = Herbicide No.1 0.56 kg/ha + Herbicide No.5 4.48 kg/ha, antidote rate 2.24 kg/ha
[18] = Herbicide No.1 0.56 kg/ha + Herbicide No.5 4.48 kg/ha, antidote rate 8.96 kg/ha
[19] = Herbicide No.1 0.14 + No.9 2.24 kg/ha + antidote 2.24 kg/ha
[20] = Herbicide No.1 0.14 + No.9 2.24 kg/ha + antidote 8.96 kg/ha
[21] = Herbicide No.1 0.56 + No.9 2.24 kg/ha + antidote 2.24 kg/ha
[22] = Herbicide No.1 0.56 + No.9 2.24 kg/ha + antidote 8.96 kg/ha
[23] = Herbicide No.1 0.56 kg/ha + ERADICANE EXTRA 8.96 kg/ha, antidote 2.24 kg/ha
[24] = Herbicide No.1 0.56 kg/ha + ERADICANE EXTRA 8.96 kg/ha, antidote 8.96 kg/ha
[25] = Herbicide No.1 1.12 kg/ha + ERADICANE EXTRA 8.96 kg/ha, antidote 2.24 kg/ha
[26] = Herbicide No.1 1.12 kg/ha + ERADICANE EXTRA 8.96 kg/ha, antidote 8.96 kg/ha
[27] = Herbicide No.1 0.14 + No.12 3.36 kg/ha + antidote 2.24 kg/ha
[28] = Herbicide No.1 0.14 + No.12 3.36 kg/ha + antidote 8.96 kg/ha
[29] = Herbicide No.1 0.56 + No.12 3.36 kg/ha + antidote 2.24 kg/ha
[30] = Herbicide No.1 0.56 + No.12 3.36 kg/ha + antidote 8.96 kg/ha
[31] = Herbicide No.1 0.56 kg/ha + ERADICANE 8.96 kg/ha, antidote 2.24 kg/ha
[32] = Herbicide No.1 0.56 kg/ha + ERADICANE 8.96 kg/ha, antidote 8.96 kg/ha
[33] = Herbicide No.1 1.12 kg/ha + ERADICANE 8.96 kg/ha, antidote 2.24 kg/ha
[34] = Herbicide No.1 1.12 kg/ha + ERADICANE 8.96 kg/ha, antidote 8.96 kg/ha

SMILES: CC1(C(Cl)Cl)OCCO1 [compound 13]
- % Injury BYG [1, 11]: 100%
- % Injury BYG [1, 12]: 100%
- % Injury BYG [1, 13]: 100%
- % Injury BYG [1, 14]: 100%
- % Injury VL [2, 11]: 85%
- % Injury VL [2, 12]: 85%
- % Injury VL [2, 13]: 90%
- % Injury VL [2, 14]: 95%
- % Injury BYG [3, 15]: 98%
- % Injury BYG [3, 16]: 97%
- % Injury BYG [3, 17]: 99%
- % Injury BYG [3, 18]: 98%
- % Injury VL [4, 15]: 70%
- % Injury VL [4, 16]: 70%
- % Injury VL [4, 17]: 80%
- % Injury VL [4, 18]: 75%
- % Injury Corn (corn; [19]): 25%
- % Injury Corn (corn; [20]): 10%
- % Injury Corn (corn; [21]): 45%
- % Injury Corn (corn; [22]): 30%
- % Injury BYG [5, 23]: 90%
- % Injury BYG [5, 24]: 90%
- % Injury BYG [5, 25]: 90%
- % Injury BYG [5, 26]: 95%
- % Injury VL [6, 23]: 65%
- % Injury VL [6, 24]: 70%
- % Injury VL [6, 25]: 80%
- % Injury VL [6, 26]: 85%
- % Injury BYG [7, 27]: 100%
- % Injury BYG [7, 28]: 100%
- % Injury BYG [7, 29]: 100%
- % Injury BYG [7, 30]: 100%
- % Injury VL [8, 27]: 75%
- % Injury VL [8, 28]: 80%
- % Injury VL [8, 29]: 85%
- % Injury VL [8, 30]: 85%
- % Injury BYG [9, 31]: 85%
- % Injury BYG [9, 32]: 85%
- % Injury BYG [9, 33]: 85%
- % Injury BYG [9, 34]: 90%
- % Injury VL [10, 31]: 80%
- % Injury VL [10, 32]: 80%
- % Injury VL [10, 33]: 75%
- % Injury VL [10, 34]: 75%

SMILES: C=CCN(CC=C)C(=O)C(Cl)Cl [compound 1]
- % Injury BYG [1, 11]: 99%
- % Injury BYG [1, 12]: 100%
- % Injury BYG [1, 13]: 99%
- % Injury BYG [1, 14]: 100%
- % Injury VL [2, 11]: 80%
- % Injury VL [2, 12]: 90%
- % Injury VL [2, 13]: 85%
- % Injury VL [2, 14]: 80%
- % Injury BYG [3, 15]: 99%
- % Injury BYG [3, 16]: 99%
- % Injury BYG [3, 17]: 98%
- % Injury BYG [3, 18]: 99%
- % Injury VL [4, 15]: 75%
- % Injury VL [4, 16]: 70%
- % Injury VL [4, 17]: 70%
- % Injury VL [4, 18]: 80%
- % Injury Corn (corn; [19]): 20%
- % Injury Corn (corn; [20]): 10%
- % Injury Corn (corn; [21]): 20%
- % Injury Corn (corn; [22]): 15%
- % Injury BYG [5, 23]: 90%
- % Injury BYG [5, 24]: 90%
- % Injury BYG [5, 25]: 90%
- % Injury BYG [5, 26]: 95%
- % Injury VL [6, 23]: 70%
- % Injury VL [6, 24]: 75%
- % Injury VL [6, 25]: 70%
- % Injury VL [6, 26]: 85%
- % Injury BYG [7, 27]: 100%
- % Injury BYG [7, 28]: 100%
- % Injury BYG [7, 29]: 100%
- % Injury BYG [7, 30]: 100%
- % Injury VL [8, 27]: 70%
- % Injury VL [8, 28]: 75%
- % Injury VL [8, 29]: 85%
- % Injury VL [8, 30]: 80%
- % Injury BYG [9, 31]: 90%
- % Injury BYG [9, 32]: 90%
- % Injury BYG [9, 33]: 90%
- % Injury BYG [9, 34]: 85%
- % Injury VL [10, 31]: 85%
- % Injury VL [10, 32]: 85%
- % Injury VL [10, 33]: 75%
- % Injury VL [10, 34]: 75%
